Assay results published in patent US20240262830A1, “IRE1A MODULATORS AND USES THEREOF” (Nimbus Iaso, Inc., priority 2020, published 2024).

Tests used:
[1] = biological target: T1, truncated human IRE1a WT protein, containing the catalytic part (aa 547-977) (Homo sapiens, UniProt O75460); assay: IRE1a biochemical enzyme splice assay; details: 20 nM protein, 500 nM fluorescently quenched IRE1a substrate, 40 min at room temperature; read-out: EnzymeSplice_hIRE1a_IC50 (IC50)
T1 construct: containing the catalytic part (aa 547-977); made in house
Description: A truncated human IRE1a WT protein, containing the catalytic part (aa 547-977) was expressed in baculovirus. The purified protein (20 nM) was incubated with a fluorescently quenched IRE1a substrate (500 nM; 5′/6-FAM-CAGUCCGCAGCACUG-BHQ-1/3′) and a titration of inhibitor, starting at 10 μM (final DMSO concentration=1%) for 40 min at room temperature in assay buffer. Reactions were carried out in a final volume of […] in a 384 well assay plate. The reaction was stopped, and the plate was spun for 1 minute at 1000 rpm. The fluorescence intensity of the IRE1a-substrate was measured using an fluorescent plate reader (Ex 485 nm/Em 535 nm, Perkin Elmer Envision).

hIRE1a = assay: XBP1-Luc cell assay; format: cell-based; details: Homo sapiens; HEK293-pLVX-XBP1.fluc-IRES-Puro cells, 600 nM Thapsigargin 1 hour, then inhibitor 6 hours; read-out: fLuc_XBP1_hIRE1a_HEK293_IC50 (IC50)
Description: HEK293-pLVX-XBP1.fluc-IRES-Puro cells (ChemPartner) were collected into DMEM (Invitrogen, 11995-065) with 10% FBS (BI, 04-002-1A). Cells were seeded at 1.5E4 cells/well in BioCoat Poly-D-Lysine Black/Clear flat bottom 96 well plate (Corning, 356640) and incubated overnight at 37° C. and 5% CO2. Cells were treated with 600 nM Thapsigargin (Sigma, T9033) for 1 hour at 37° C. and 5% CO2 prior to inhibitor addition. A titration of inhibitor, starting at 30 μM was added to wells for an additional 6 hours at 37° C. and 5% CO2. 100 μl of Steady-Glo Luciferase assay reagent (Promega, E2550) was added to plate and the plate was shaken for 2 minutes. Signal was read using EnSpire (Perkin Elmer).

T1 sequence (O75460 547-977): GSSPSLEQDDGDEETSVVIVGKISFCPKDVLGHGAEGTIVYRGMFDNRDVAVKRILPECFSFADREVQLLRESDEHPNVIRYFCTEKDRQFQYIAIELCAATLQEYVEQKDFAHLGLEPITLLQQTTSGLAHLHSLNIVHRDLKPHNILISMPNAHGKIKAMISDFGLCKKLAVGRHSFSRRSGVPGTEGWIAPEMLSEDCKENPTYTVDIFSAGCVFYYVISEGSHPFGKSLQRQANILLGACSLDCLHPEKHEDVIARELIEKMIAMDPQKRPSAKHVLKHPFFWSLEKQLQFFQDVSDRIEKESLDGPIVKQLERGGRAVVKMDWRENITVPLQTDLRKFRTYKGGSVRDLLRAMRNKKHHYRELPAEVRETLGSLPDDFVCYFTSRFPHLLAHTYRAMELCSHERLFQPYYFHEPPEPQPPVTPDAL

IC50 [1] [nM] | IC50 (hIRE1a) [nM] | Compound
< 100 | < 1000 | CCc1cc(-c2ccc3c(NS(=O)(=O)Cc4ccccc4Cl)ncnn23)cc2cnc(N[C@H]3CCCNC3)nc12 [Compound I-25, (S)-1-(2-chlorophenyl)-N-(7-(8-ethyl-2-(piperidin-3-ylamino)quinazolin-6-yl)pyrrolo[2,1-f][1,2,4]triazin-4-yl)methanesulfonamide]
< 100 | 1000 to 10000 | CCc1cc(-c2ccc3c(NS(=O)(=O)c4ccccc4)ncnn23)cc2cnc(N[C@H]3CCCNC3)nc12 [Compound I-26, (S)—N-(7-(8-ethyl-2-(piperidin-3-ylamino)quinazolin-6-yl)pyrrolo[2,1-f][1,2,4]triazin-4-yl)benzenesulfonamide]
100 to 1000 | 1000 to 10000 | CCc1cc(-c2ccc3c(NS(=O)(=O)c4ccc(OC(F)(F)F)cc4)ncnn23)cc2cnc(N[C@H]3CCCNC3)nc12 [Compound I-27, (S)—N-(7-(8-ethyl-2-(piperidin-3-ylamino)quinazolin-6-yl)pyrrolo[2,1-f][1,2,4]triazin-4-yl)-4-(trifluoromethoxy)benzenesulfonamide]
100 to 1000 | > 10000 | CCc1cc(-c2ccc3c(NS(=O)(=O)c4ccccc4Cl)ncnn23)cc2cnc(NC3CC4(COC4)C3)nc12 [Compound I-28, N-(7-(2-((2-oxaspiro[3.3]heptan-6-yl)amino)-8-ethylquinazolin-6-yl)pyrrolo[2,1-f][1,2,4]triazin-4-yl)-2-chlorobenzenesulfonamide]
< 100 | 1000 to 10000 | CCc1cc(-c2ccc3c(NS(=O)(=O)c4ccccc4Cl)ncnn23)cc2cnc(N[C@H]3CC[C@H](O)CC3)nc12 [Compound I-29, 2-chloro-N-(7-(8-ethyl-2-(((1r,4r)-4-hydroxycyclohexyl)amino)quinazolin-6-yl)pyrrolo[2,1-f][1,2,4]triazin-4-yl)benzenesulfonamide]
< 100 | < 1000 | CCc1cc(-c2ccc3c(NS(=O)(=O)N4CCCC4)ncnn23)cc2cnc(N[C@H]3CCCNC3)nc12 [Compound I-30, Pyrrolidine-1-sulfonic acid {7-[8-ethyl-2-(piperidin-3-ylamino)-quinazolin-6-yl]-pyrrolo[2,1-f][1,2,4]triazin-4-yl}-amide]
< 100 | < 1000 | CCc1cc(-c2ccc3c(NS(=O)(=O)c4ccccc4Cl)ncnn23)cc2cnc(N[C@@H]3CNC[C@H](C)C3)nc12 [Compound I-31]
< 100 | < 1000 | CCc1cc(-c2ccc3c(NS(=O)(=O)c4ccccc4Cl)ncnn23)cc2cnc(N[C@H]3CC[C@H](N)CC3)nc12 [Compound I-32]
< 100 | < 1000 | CCCS(=O)(=O)Nc1ncnn2c(-c3cc(CC)c4nc(N[C@H]5CCCNC5)ncc4c3)ccc12 [Compound I-33, (S)—N-(7-(8-ethyl-2-(piperidin-3-ylamino)quinazolin-6-yl)pyrrolo[2,1-f][1,2,4]triazin-4-yl)propane-1-sulfonamide]
